{"source": "patent US20260232834A1", "about": "“CYTOTOXICITY TARGETING CHIMERAS FOR ANTIBODY-DRUG CONJUGATES AND BISPECIFIC ANTIBODIES” (GLAXOSMITHKLINE INTELLECTUAL PROPERTY DEVELOPMENT LIMITED, priority 2023, published 2026)", "test_system": "PSMA-expressing cells (LNCAP)", "assay": "Antibody-drug conjugate (ADC) cell killing assay, PSMA-expressing cells (CellTiter Glo)", "format": "cell-based", "conditions": "100 nM ADC plus serial diluted PSMA targeted CyTaC (max 20 μM), 48 hours, FIG. 3", "excerpt": "An antibody-drug conjugate (ADC) cell killing assay was developed to screen cotinine targeted ADCs in a 384-well plate format. This assay utilized (i) an anti-cotinine antibody having a heavy chain sequence of SEQ ID NO: 9 and a light chain sequence of SEQ ID NO: conjugated with Deruxtecan and (ii) a Prostate Specific Membrane Antigen (PSMA) Cytotoxicity Targeting Chimera (CyTaC) to target PSMA expressing cells for death. The structures of the ADC and PSMA targeted CyTaC used in this experiment are shown below:\nTo screen ADCs, 10,000 PSMA-expressing cells (LNCAP) or 10,000 non-expressing cells (CHO) in media (RPMI 1640 (Gibco) containing 10% fetal bovine serum (Gibco)) were transferred to a 384-well plate (Greiner Bio-One). To each well containing cells, 100 nM ADC was added. Next, serial diluted PSMA targeted CyTaC (maximum concentration of 20 μM) was added to appropriate wells. The plates were then incubated for 48 hours at 37° C. with 5% CO2. Following the 48 hour incubation, an equal volume of CellTiter Glo (Promega) was added to each well and the plates were read on a PheraStar Plate Reader (BMG) to measure cell viability via Luminescence signal. Signal: background was calculated by dividing the signal of a test well by the signal obtained when no CyTaC was added. The % cell death was calculated by: (1-(test well signal/no CyTaC signal))*100. […]", "data": [{"smiles": "CN1C(=O)C[C@H](C(=O)NCCO[C@H]2CC[C@H](OCCCC(=O)N[C@H]3CC[C@H](C(=O)N[C@@H](Cc4ccc5ccccc5c4)C(=O)NCCCC[C@H](NC(=O)N[C@@H](CCC(=O)O)C(=O)O)C(=O)O)CC3)CC2)[C@H]1c1cccnc1", "note": "[PSMA targeted CyTaC]", "values": [{"measurement": "ADC mediated cell killing (% cell death)", "result": "ADC mediated cell killing of PSMA expressing cells"}]}]}
